The results in this text go back to patent US20130101632A1, “NANOPARTICULATE FORMULATIONS OF MITHRAMYCIN OR MITHRAMYCIN ANALOGUES FOR TREATING CANCER” (UNIVERSITY OF KENTUCKY RESEARCH FOUNDATION, priority 2011, published 2013).

SMILES strings stand for the structures.

In test [1] the test system is HT29 colon cancer cells. In words: In vivo subcutaneous tumor model. Particulars: 2 mg/kg, 100 μL injection, after 18 days, HT29 subcutaneous tumors in nude mice. As to the method:
Subcutaneous tumor models were established with HT29 colon cancer cells. Nude/nude mice at 8 weeks old were injected with 3×10^6 HT29 cells subcutaneously in the right flank. The tumors were then allowed to grow to a volume of ˜130 mm^3. Once the tumors reached a volume of 130 mm^3 the mice were injected with 100 μL of the desired treatment. For the control group the mice were injected with PBS. For the SK free drug and SK CNA groups the final treatment dose was 7 mg/kg and an injection volume of 100 μL. For SDK free drug and SDK CNA the final treatment dose was 2 mg/kg with an injection volume of 100 μL. Once the mice were treated the tumor volume and body mass were measured for 18 days. The groups were formed with an N=6 mice. The tumor volume was calculated by the formula 0.5(l)×w2.

In test [2] the test system is A549 cells. In words: Cell toxicity assay in A549 cells (resazurin). Type of test: cell-based, human. As to the method:
The cytotoxic effects of four MTM analogue nanoparticulate formulations were investigated in comparison to free drugs. A549 cells were cultured as specified from ATCC at 37° C., 5% CO2. The cells were seeded on a 96 well plate (5,000 cells/well) and allowed to adhere for 24 hrs. After 24 hrs growth media were replaced with fresh media containing samples at differing concentrations. 1% DMSO (biotechnological grade) was used as a control vehicle to prepare free drug formulations for SK and SDK. Self-assembled and cross-linked micelles were used as nanoparticulate formulations for SK and SDK. The cells were exposed to samples for 72 hrs total (n=8). Cell viability was assessed using a resazurin assay that indicates mitochondrial metabolic activity in live cells. 10 μL of a 1 mM resazurin solution in PBS was added to the vehicle- and drug-treated cells at the end of the treatment period. Cell viability was determined three hours later by reading the fluorescence at 560 nm (Ex)/590 nm (Em). The fluorescence signals were quantified using a Spectramax M5 plate reader (Molecular Devices) equipped with a SoftMaxPro software. Cytotoxicity was determined by calculating the half maximal inhibitory concentration (IC50) of each sample.
A general note: The colour change of resazurin is a common sign of viable cells or microbes.

For test [3], the system named is HT29 cells. The experiment in a line: Cell toxicity assay in HT29 cells (resazurin). Type of test: cell-based. The note with it: 72 hrs exposure. The method, then: The in vitro cytotoxic effects of the MTM loaded CNAs (Crosslinked Nano Assemblies) were investigated in comparison to free drugs. HT29 cells were cultured as specified from ATCC at 37° C., 5% CO2. The cells were seeded on a 96 well plate (5,000 cells/well) and allowed to adhere for 24 hrs. After 24 hrs growth media were replaced with fresh media containing drug and CNA samples at differing concentrations. Free drug formulations for SK and SDK and CNA formulations were prepared in filtered DI water. The cells were exposed to samples for 72 hrs total (n=4). Cell viability was assessed using a resazurin assay that indicates mitochondrial metabolic activity in live cells. 10 μL of a 1 mM resazurin (7-Hydroxy-3H-phenoxazin-3-one 10-oxide) solution in PBS was added to the vehicle- and drug-treated cells at the end of the treatment period. Cell viability was determined three hours later by reading the fluorescence at 560 nm (Ex)/590 nm (Em). The fluorescence signals were quantified using a Spectramax® M5 plate reader (Molecular Devices) equipped with a SoftMaxPro® software. Cytotoxicity was determined by calculating the half maximal inhibitory concentration (IC50) of each sample.

A word on the IC50: it is the concentration at which inhibition is half-maximal. Higher therefore signals weaker potency. For the compound `CO[C@H](C(=O)C(C)=O)[C@@H]1Cc2cc3cc(OC4C[C@@H](OC5C[C@@H](O)[C@H](O)C(C)O5)[C@H](O)C(C)O4)c(C)c(O)c3c(O)c2C(=O)[C@H]1OC1C[C@@H](OC2C[C@@H](OC3C[C@](C)(O)[C@H](O)C(C)O3)[C@@H](O)C(C)O2)[C@H](O)C(C)O1` (stereo partly shown) [SDK], the “relative tumor regression as compared to the control” value in test [1] is recorded as 48%. Also, the IC50 was found to be 93 ± 35 nM in test [2] (72 hrs exposure, resazurin assay) and 216 ± 4 nM in test [3]. Moreover, in test [2] (relative to free drug = 1.00), the “Relative efficacy to free drug” value stood at 1.00.
